The text below walks through data of ChEMBL document CHEMBL5625230, “The recent developments of camptothecin and its derivatives as potential anti-tumor agents” (Eur J Med Chem, 2023).

For data set [1], the system named is A549. Kind of data set: Antiproliferative activity against human A549 cells assessed as inhibition of cell viability measured after 72 hrs by CCK-8 assay. The format is functional, cell-based. Particulars: A549, 72 h. A general note: Tetrazolium dyes change colour on reduction, which living cells bring about.
A short description of data set [2]: Anticancer activity against human KBV cells assessed as reduction in cell growth measured after 72 hrs by SRB assay. The data set is classed as functional, cell-based. (In general: In SRB staining, fixed cells bind dye roughly in proportion to their protein.)
The nature of data set [3]: Antitumor activity against mouse RM1 cells xenografted in C57BL/6 mouse assessed as tumor growth inhibition at 9 mg/kg, ip administered every other day for 3 times and measured on day 7 relative to control. The format is functional. To be noted: RM1, 168 h, time 7 day, read-out: TGI.
Data set [4] can be described thus: Cytotoxicity against Sf9 cells assessed as inhibition of cell growth measured after 24 hrs by MTT assay. The data set is classed as toxicity, cell-based. To be noted: Spodoptera frugiperda.
For data set [5], the system named is A549. Briefly: Antitumor activity against human A549 cells assessed as reduction in cell viability incubated for 72 hrs by CCK-8 assay. The format is functional, cell-based. Particulars: A549, 72 h.
Data set [6] concerns PC-3M. Briefly: Cytotoxicity against human PC-3M cells assessed as reduction in cell viability measured after 72 hrs by MTS assay. The data set is classed as functional, cell-based.
Data set [7] deals with HT-29. Kind of data set: Antiproliferative activity against human HT-29 cells assessed as reduction in cell viability incubated for 72 hrs by MTT assay. The format is functional, cell-based. Particulars: HT-29, 72 h.
Data set [8] has as its system HepG2. Kind of data set: Antiproliferative activity against human HepG2 cells assessed as reduction in cell viability incubated for 72 hrs by MTT assay. Particulars: HepG2, 72 h. The data set is classed as functional, cell-based.
The subject of data set [9] is HL-60. Briefly: Antiproliferative activity against human HL-60 cells assessed as reduction in cell viability incubated for 48 hrs by MTT assay. To be noted: HL-60, 48 h. The format is functional, cell-based.

As usually defined, the IC50 is the concentration that inhibits the measured activity by half. In the case of `CC[C@]1(O)c2cc3n(c(=O)c2CO[C@H]1F)Cc1cc2c4c(ccc2nc1-3)OCN(C1CCCC1)C4`, the IC50 in data set [1] came out at 630 nM.

Consider `CC[C@@]1(O)C(=O)OCc2c1cc1n(c2=O)Cc2c-1nc1ccccc1c2CN1CCN(C(=S)Nc2cccc3ccccc23)CC1`, for which the IC50 in data set [2] worked out at 275000 nM.

As to `CC[C@]1(O)c2cc3n(c(=O)c2CO[C@H]1F)Cc1cc2c4c(ccc2nc1-3)OCN(C1CC1)C4`, the IC50 in [1] was 630 nM.

Consider `CC[C@@]1(OC(=O)CCC(=O)O[C@@H]2O[C@@H](C)[C@H](OC(C)=O)[C@@H](OC(C)=O)[C@H]2OC(C)=O)C(=O)OCc2c1cc1n(c2=O)Cc2cc3cc4c(cc3nc2-1)OCO4`, for which the inhibition in vivo at 9 mg/kg in [3] was determined as 44.9%.

In the case of `CC[C@]1(O)c2cc3n(c(=O)c2CO[C@H]1F)Cc1cc2c4c(ccc2nc1-3)OCN(C1CCC1)C4`, in data set [1], the IC50 is 630 nM.

For the compound `CC[C@@]1(O)C(=O)OCc2c1cc1n(c2=O)Cc2c-1nc1ccccc1c2C(=O)NCc1ccc(F)cc1`, the IC50 at 24 h in data set [4] turned out to be 2010 nM.

Consider `CC[C@@]1(OC(=O)[C@@H](Cc2ccccc2)NC(=O)OC(C)(C)C)C(=O)OCc2c1cc1n(c2=O)Cc2cc3ccccc3nc2-1`, for which the IC50 in data set [5] turned out to be 18 nM; in [6], 88 nM.

On to `CCCCCCCCCCCCCCCCOC(=O)[C@@]1(C)CCc2c(C)c(OC(=O)CCC(=O)O[C@]3(CC)C(=O)OCc4c3cc3n(c4=O)Cc4c-3nc3ccc(O)cc3c4CC)c(C)c(C)c2O1`, for which the IC50 was found to be 45.1 nM in [7] and 165 nM in [8].

Take `CCCCCNC(=O)c1c2c(nc3ccccc13)-c1cc3c(c(=O)n1C2)COC(=O)[C@]3(O)CC`: the IC50 at 24 h in data set [4] is 2010 nM.

Regarding `CC[C@]1(O)c2cc3n(c(=O)c2CO[C@H]1F)Cc1cc2c4c(ccc2nc1-3)OCN(C1CCCCC1)C4`, the IC50 in data set [1] amounted to 630 nM.

On to `CC[C@@]1(OCc2cn([C@@H]3c4cc5c(cc4[C@@H](c4cc(OC)c(O)c(OC)c4)[C@H]4C(=O)OC[C@@H]43)OCO5)nn2)C(=O)OCc2c1cc1n(c2=O)Cc2cc3ccccc3nc2-1`, for which, in data set [9], the IC50 amounted to 17700 nM.

Consider `CC[C@@]1(O)C(=O)OCc2c1cc1n(c2=O)Cc2c-1nc1ccccc1c2CN1CCN(C(=S)Nc2ccccc2OC)CC1`, for which the IC50 in data set [2] came to 514000 nM.

Turning to `CC[C@@]1(O)C(=O)OCc2c1cc1n(c2=O)Cc2c-1nc1ccccc1c2C(=O)NCc1ccccc1`, in data set [4], the IC50 at 24 h came out at 2010 nM.
